Several values for one entry are separate records, joined by “and”; a condition that tells them apart may be missing. Equal entries are not always repeated.
Experiments:
[1] = molecular target: T1, ratAChE (Rattus norvegicus, UniProt P37136); assay: biochemical; conditions: for SI: Selectivity Index = IC50 (BuChE)/IC50 (AChE), rat enzymes; for IC50: from 5% rat cortex homogenate, read-out: IC50 ± SD ratAChE
T1 construct: AChE from 5% rat cortex homogenate or human erythrocytes (Sigma Co.); from tissue; host or cells: 5% rat cortex homogenate
T1 sequence (P37136 32-614): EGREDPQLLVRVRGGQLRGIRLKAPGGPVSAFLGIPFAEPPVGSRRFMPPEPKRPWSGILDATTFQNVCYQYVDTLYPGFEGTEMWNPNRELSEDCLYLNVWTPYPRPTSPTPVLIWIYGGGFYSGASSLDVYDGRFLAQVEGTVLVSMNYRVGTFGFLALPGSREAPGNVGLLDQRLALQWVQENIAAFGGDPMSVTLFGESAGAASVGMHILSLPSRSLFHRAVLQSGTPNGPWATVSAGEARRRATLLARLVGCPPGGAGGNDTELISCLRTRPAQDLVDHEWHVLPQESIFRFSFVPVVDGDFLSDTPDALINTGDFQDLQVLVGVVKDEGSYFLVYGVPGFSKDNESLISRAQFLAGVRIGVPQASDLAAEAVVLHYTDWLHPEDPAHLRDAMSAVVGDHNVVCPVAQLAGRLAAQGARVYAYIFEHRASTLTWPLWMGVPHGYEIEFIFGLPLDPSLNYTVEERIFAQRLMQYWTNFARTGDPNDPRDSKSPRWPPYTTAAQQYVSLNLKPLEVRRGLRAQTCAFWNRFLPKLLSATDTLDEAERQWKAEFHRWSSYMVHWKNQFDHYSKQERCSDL
Procedure: (§1) The AChE and BuChE inhibitory activities of the synthesised compounds were evaluated using the Ellman assay with slight modification. AChE from 5% rat cortex homogenate or human erythrocytes (Sigma Co.). BuChE from rat serum or human serum (Sigma Co.).

[2] = molecular target: Aβ1–42 (Homo sapiens, UniProt P05067); assay: Self-induced Aβ1–42 aggregation, Thioflavin T fluorescence; type: biochemical; conditions: tested compounds and Aβ1–42 25 μM
From the text: The Thioflavin T-based flurometric assay was employed to test the inhibition potency on self-induced/Cu^2+-induced Aβ1-42 aggregation.

[3] = system: NO production in LPS-induced BV-2 cells; assay: NO production in BV-2 cells, Griess reaction; type: cell-based; conditions: for release volume of NO in BV-2 cells without LPS: 3 μM and 9 μM
Procedure: Compounds 5f and 7k were selected to test the anti-inflammatory potency by measuring the production of inflammatory mediators TNF-α and NO in LPS-induced BV-2 cells[32]^,[33]. • Cytotoxicity of compounds 5f and 7k on BV-2 cells. Firstly, the cytotoxicity of compounds 5f and 7k were tested using an MTT assay. […] In inhibition of LPS-induced, NO production was tested through the Griess reaction method. […] In addition, to further investigate the effects of compounds 5f and 7k on LPS-induced TNF-α production in BV-2 cells, the enzyme-linked immunosorbent assay (ELISA) was used.
Griess reagent system was used to evaluate the inhibition of LPS-induced NO production. The methods of culturing BV-2 cells, setting blank control and adding tested compounds 5f or 7k (1 μM, 3 μM and 9 μM) and LPS were the same as those in the cytotoxicity assay. After that, the cell culture supernatants and different concentrations of NaNO2 as a standard were added to a 96-well plate since the NaNO2 concentration in the supernatant could act as an indicator of NO production. Then, to each well was added the same volume of Griess reagent and incubated at room temperature for 10 min. Finally, the absorbance was monitored at 540 nm using an ELISA plate reader to measure the results of NO production.

[4] = for ORAC: Trolox as standard
Procedure: The skeleton compounds naringenin and apigenin were also evaluated for comparison purposes, and vitamin E analogue Trolox was used as a standard.
The antioxidant potency of target compounds was tested using an oxygen radical absorbance capacity fluorescein (ORAC-FL) assay.

[5] = PAMPA-BBB; for Pe: final concentration 100 μg/mL
[6] = system: BV-2 cells; assay: Cytotoxicity on BV-2 cells, MTT assay; type: cell-based; conditions: 1 μM, 3 μM and 9 μM
Procedure: Compounds 5f and 7k were selected to test the anti-inflammatory potency by measuring the production of inflammatory mediators TNF-α and NO in LPS-induced BV-2 cells[32]^,[33]. • Cytotoxicity of compounds 5f and 7k on BV-2 cells. Firstly, the cytotoxicity of compounds 5f and 7k were tested using an MTT assay. […] In inhibition of LPS-induced, NO production was tested through the Griess reaction method. […] […]. In addition, to further investigate the effects of compounds 5f and 7k on LPS-induced TNF-α production in BV-2 cells, the enzyme-linked immunosorbent assay (ELISA) was used. […].
The anti-neuroinflammatory property of compounds 5f and 7k was assessed using BV-2 cells by evaluating the level of NO production and TNF-α production[32]^,[33]. Firstly, the cytotoxicity of compounds 5f and 7k was tested on BV-2 cells using an MTT assay. BV-2 cells were seeded in DMEM (100 μL) and cultured in a 96-well cell culture microplate and incubated in a humidified incubator containing 5% CO2 at 37 °C for 24 h. Then, 10 μL of 5f or 7k were added to cells in triplicate wells, followed by incubation for another 30 min. […] Finally, the crystals obtained were dissolved in DMSO (200 μ L) and OD values were measured at 490 nm. The results were recorded and expressed as the percent cell viability compared to the control group.

[7] = molecular target: huAChE (Homo sapiens, UniProt P22303); assay: Enzyme kinetic study of huAChE (Lineweaver-Burk); type: biochemical; set-up: AChE from human erythrocytes (Sigma Co.); purchased Sigma Co; host or cells: human erythrocytes; conditions: for type of AChE inhibition: Lineweaver-Burk plot; for Ki: replots of slope versus concentration, read-out: inhibition constant Ki
From the text: An enzyme kinetic study was applied to determine the mechanism of AChE inhibition for compounds 5f and 7k. The lineweaver-Burk double reciprocal plot was used to define the inhibition by plotting the initial velocities of the substrate at the y-axis and increasing concentrations of the substrate at the x-axis[17]^,[19]. […] […].
Figure 3. Enzyme kinetic study on the mechanism of huAChE inhibition by compounds 5f and 7k. […] (D) Representing the plots of slope versus the concentration of 7k for determining the inhibition constants Ki. […] |

[8] = molecular target: T2, huBuChE (Homo sapiens, UniProt P06276); assay: biochemical; type: biochemical; conditions: from human serum; read-out: IC50 ± SD huBuChE
T2 construct: BuChE from rat serum or human serum (Sigma Co.); purchased Sigma Co; host or cells: human serum
Procedure: as §1

[9] = system: PC12 cells; assay: Cytotoxicity on PC12 cells, MTT assay; type: cell-based; conditions: 40 μM

huAChE, sequence (P22303 32-617 isoform P22303-2 limits assumed): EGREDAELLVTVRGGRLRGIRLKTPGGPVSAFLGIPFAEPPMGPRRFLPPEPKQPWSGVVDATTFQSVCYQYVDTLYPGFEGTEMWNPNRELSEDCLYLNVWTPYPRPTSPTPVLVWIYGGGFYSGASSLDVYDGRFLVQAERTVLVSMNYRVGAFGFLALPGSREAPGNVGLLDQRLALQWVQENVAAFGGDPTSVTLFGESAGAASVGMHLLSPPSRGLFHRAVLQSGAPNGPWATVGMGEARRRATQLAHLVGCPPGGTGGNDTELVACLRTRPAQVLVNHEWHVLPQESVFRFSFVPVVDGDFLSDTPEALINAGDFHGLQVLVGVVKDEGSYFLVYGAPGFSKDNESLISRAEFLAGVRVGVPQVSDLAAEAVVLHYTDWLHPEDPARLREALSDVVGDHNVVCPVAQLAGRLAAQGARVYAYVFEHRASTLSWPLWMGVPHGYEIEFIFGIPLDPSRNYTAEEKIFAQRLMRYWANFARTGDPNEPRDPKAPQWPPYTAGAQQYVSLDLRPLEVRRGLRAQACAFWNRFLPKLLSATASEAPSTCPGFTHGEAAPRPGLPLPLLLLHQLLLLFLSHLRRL
Aβ1–42, sequence (P05067 672-713): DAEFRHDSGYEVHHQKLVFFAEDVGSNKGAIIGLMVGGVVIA
T2 sequence (P06276 29-602): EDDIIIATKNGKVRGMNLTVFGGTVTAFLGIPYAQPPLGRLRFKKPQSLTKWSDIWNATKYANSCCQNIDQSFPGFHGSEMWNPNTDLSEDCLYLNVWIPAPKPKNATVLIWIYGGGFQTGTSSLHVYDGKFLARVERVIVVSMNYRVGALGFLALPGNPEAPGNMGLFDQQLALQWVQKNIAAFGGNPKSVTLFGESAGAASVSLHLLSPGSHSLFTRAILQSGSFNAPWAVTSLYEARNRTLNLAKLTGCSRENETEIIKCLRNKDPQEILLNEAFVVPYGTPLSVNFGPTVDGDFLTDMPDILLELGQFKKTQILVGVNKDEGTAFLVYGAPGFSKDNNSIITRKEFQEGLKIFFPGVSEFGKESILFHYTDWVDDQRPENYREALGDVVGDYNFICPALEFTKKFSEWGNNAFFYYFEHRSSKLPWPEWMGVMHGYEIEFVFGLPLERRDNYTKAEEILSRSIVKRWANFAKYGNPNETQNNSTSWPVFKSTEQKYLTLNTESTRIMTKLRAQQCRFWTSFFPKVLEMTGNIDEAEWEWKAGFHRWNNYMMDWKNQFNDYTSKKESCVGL

**Q.** With `CCN(CCCCCOc1cc(O)c2c(c1)OC(c1ccc(O)cc1)CC2=O)Cc1ccccc1` (stereo not shown) [Compound 5f, 7-((5-(benzyl(ethyl)amino)pentyl)oxy)-5-hydroxy-2–(4-hydroxyphenyl)chroman-4-one] as the compound, how does the SI [1] read?
**A.** 9.9

**Q.** What about the IC50 [1] of the same compound?
**A.** 1700 ± 80 nM

**Q.** What about the inhibition at 25 µM [2] of the same compound?
**A.** 62.1 ± 0.38%

**Q.** And the “release volume of NO in BV-2 cells without LPS” value ([3]; 1 μM)?
**A.** did not produce significant change

**Q.** And the inhibition at 1 µM ([3]; Mus musculus, BV-2, 1 μM, 1 μg/mL LPS, read-out: inhibition rate of LPS-induced NO production)?
**A.** 37.6%

**Q.** And the inhibition at 3 µM ([3]; Mus musculus, BV-2, 3 μM, 1 μg/mL LPS, read-out: inhibition rate of LPS-induced NO production)?
**A.** 52.1%

**Q.** What about the inhibition at 9 µM ([3]; Mus musculus, BV-2, 9 μM, 1 μg/mL LPS, read-out: inhibition rate of LPS-induced NO production) of the same compound?
**A.** 63.8%

**Q.** What about the ORAC values [4] of the same compound?
**A.** 2.3 eq

**Q.** And the ORAC [4]?
**A.** 2.3 ± 0.03 μM of Trolox equivalent/μM of tested compound

**Q.** What about the Prediction [5] of the same compound?
**A.** CNS+ (Pe > 3.44 displayed high BBB permeation)

**Q.** And the Pe [5]?
**A.** 6.9e-06 cm/s

**Q.** And the “cell viability of BV-2 cells” value [6]?
**A.** did not show obvious change

**Q.** And the “type of AChE inhibition” value [7]?
**A.** mixed-type

**Q.** What about the Ki [7] of the same compound?
**A.** 740 nM

**Q.** What about the IC50 [8] of the same compound?
**A.** 6300 ± 740 nM

**Q.** What about the “cytotoxicity on PC12 cells” value [9] of the same compound?
**A.** did not show any cytotoxicity

**Q.** Which results are given for “7-((6-(benzyl(ethyl)amino)hexyl)oxy)-2–(4-((6-(benzyl(ethyl)amino)hexyl)oxy)phenyl)-5-hydroxychroman-4-one [Compound 7k]”?
**A.** SI [1]: 18.7; IC50 [1]: 790 ± 60 nM; Inhibition of Aβ1–42 aggregation, Self-induced (%) [2]: 43.8 ± 0.51%; inhibition rate of LPS-induced NO production ([3]; 1 μM, 1 μg/mL LPS): 26.7%; release volume of NO in BV-2 cells without LPS ([3]; 1 μM): did not produce significant change; inhibition rate of LPS-induced NO production ([3]; 3 μM, 1 μg/mL LPS): 36.2%; inhibition rate of LPS-induced NO production ([3]; 9 μM, 1 μg/mL LPS): 48.5%; ORAC [4]: 1.2 ± 0.02 μM of Trolox equivalent/μM of tested compound; Prediction [5]: CNS+ (Pe > 3.44 displayed high BBB permeation); Pe [5]: 11.7 ×10^−6 cm/s and 11.7 ± 0.54 ×10^−6 cm/s; cell viability of BV-2 cells [6]: did not show obvious change; type of AChE inhibition [7]: mixed-type; Ki [7]: 390 nM; IC50 [8]: 8200 ± 370 nM; cytotoxicity on PC12 cells [9]: did not show any cytotoxicity
